Experimental data published in patent US9309238B2, “Imidazo [1,2-a]pyridine compounds, synthesis thereof, and methods of using same” (priority 2009, dated 2016).
Converted amounts (≈) assume the structure as drawn. Where two headings read alike, the source gives them in different places.

What was measured:
Assay in all cases: microbe, parasite or virus in culture
[1] = system: rRMP (Rifampicin-resistant TB strain); assay type: cell-based, Mycobacterium tuberculosis
[2] = system: rINH (Isoniazid-resistant TB strain); assay type: cell-based, Mycobacterium tuberculosis
[3] = system: rSM (Streptomycin-resistant TB strain); assay type: cell-based, Mycobacterium tuberculosis
[4] = system: rKM (Kanamycin-resistant TB strain); assay type: cell-based, Mycobacterium tuberculosis
[5] = system: MDR-TB strain resistant to HREKP; assay type: cell-based; conditions: Mycobacterium tuberculosis
[6] = system: extreme drug-resistant TB strain HRESPOCTh; assay type: cell-based; conditions: Mycobacterium tuberculosis
[7] = system: MDR-TB strain resistant to HREZSKPTh; assay type: cell-based; conditions: Mycobacterium tuberculosis
[8] = system: extreme drug-resistant TB strain HRESPO; assay type: cell-based; conditions: Mycobacterium tuberculosis
[9] = system: extreme drug-resistant TB strain HREPKOTh; assay type: cell-based; conditions: Mycobacterium tuberculosis
[10] = system: MDR-TB strain resistant to HRERb* (column 8); assay type: cell-based; conditions: Mycobacterium tuberculosis
[11] = system: MDR-TB strain resistant to HRERb* (column 7); assay type: cell-based; conditions: Mycobacterium tuberculosis
[12] = system: MDR-TB strain resistant to HRERb* (column 5); assay type: cell-based; conditions: Mycobacterium tuberculosis
[13] = system: MDR-TB strain resistant to HREZRbTh; assay type: cell-based; conditions: Mycobacterium tuberculosis
[14] = system: MDR-TB strain resistant to HCPTh; assay type: cell-based; conditions: Mycobacterium tuberculosis
[15] = system: MDR-TB strain resistant to HREZSP; assay type: cell-based; conditions: Mycobacterium tuberculosis
[16] = system: MDR-TB strain resistant to HRESP; assay type: cell-based; conditions: Mycobacterium tuberculosis
[17] = single drug resistant strain rRMP
[18] = single drug resistant strain rINH
[19] = single drug resistant strain rKM

NNC(=O)c1ccncc1 [INH, Isoniazid, reference compound]
MIC90 ([1]; Mycobacterium tuberculosis): 0.23 µM (≈ 0.0315 µg/mL)
MIC90 ([2]; Mycobacterium tuberculosis): > 8 µM

COc1c(N2C[C@@H]3CCCN[C@@H]3C2)c(F)cc2c(=O)c(C(=O)O)cn(C3CC3)c12 [Moxifloxacin, reference compound]
MIC90 ([3]; Mycobacterium tuberculosis): 0.15 µM (≈ 0.0602 µg/mL)
MIC90 ([1]; Mycobacterium tuberculosis): 0.1 µM (≈ 0.0401 µg/mL)
MIC90 ([2]; Mycobacterium tuberculosis): 0.12 µM (≈ 0.0482 µg/mL)
MIC90 ([4]; Mycobacterium tuberculosis): 0.24 µM (≈ 0.0963 µg/mL)

Cc1ccn2c(C(=O)NCc3ccccc3)c(C)nc2c1 [ND-8454, N-benzyl-2,7-dimethylimidazo[1,2-a]pyridine-3-carboxamide]
MIC90 ([3]; Mycobacterium tuberculosis): 1.02 µM (≈ 0.285 µg/mL)
MIC90 [5]: 0.078 µg/mL (≈ 0.279 µM)
MIC90 [6]: 0.02 µg/mL (≈ 0.0716 µM)
MIC90 [7]: 0.019 µg/mL (≈ 0.068 µM)
MIC90 [8]: 0.039 µg/mL (≈ 0.14 µM)
MIC90 [9]: 0.02 µg/mL (≈ 0.0716 µM)
MIC90 ([1]; Mycobacterium tuberculosis): 0.28 µM (≈ 0.0782 µg/mL)
MIC90 [10]: 0.078 µg/mL (≈ 0.279 µM)
MIC90 [11]: 0.039 µg/mL (≈ 0.14 µM)
MIC90 [12]: 0.039 µg/mL (≈ 0.14 µM)
MIC90 [13]: 0.039 µg/mL (≈ 0.14 µM)
MIC90 [14]: 0.313 µg/mL (≈ 1.12 µM)
MIC90 ([2]; Mycobacterium tuberculosis): 0.33 µM (≈ 0.0922 µg/mL)
MIC90 [15]: 0.312 µg/mL (≈ 1.12 µM)
MIC90 ([4]; Mycobacterium tuberculosis): 1.07 µM (≈ 0.299 µg/mL)
MIC90 [16]: 0.625 µg/mL (≈ 2.24 µM)

Cc1ccn2c(C(=O)NCc3cccc(F)c3)c(C)nc2c1 [ND-9361]
MIC90 [5]: 0.078 µg/mL (≈ 0.262 µM)
MIC90 [6]: 0.02 µg/mL (≈ 0.0673 µM)
MIC90 [7]: 0.019 µg/mL (≈ 0.0639 µM)
MIC90 [8]: 0.01 µg/mL (≈ 0.0336 µM)
MIC90 [9]: 0.01 µg/mL (≈ 0.0336 µM)
MIC90 [10]: 0.078 µg/mL (≈ 0.262 µM)
MIC90 [11]: 0.01 µg/mL (≈ 0.0336 µM)
MIC90 [12]: 0.039 µg/mL (≈ 0.131 µM)
MIC90 [13]: 0.019 µg/mL (≈ 0.0639 µM)
MIC90 [15]: 0.019 µg/mL (≈ 0.0639 µM)
MIC90 [16]: 0.078 µg/mL (≈ 0.262 µM)

Cc1ccn2c(C(=O)NCc3ccc(Oc4ccc(F)cc4)cc3)c(C)nc2c1 [ND-9758]
MIC90 [3]: 0.01 µM (≈ 0.00389 µg/mL)
MIC90 [1, 17]: <0.002 µM
MIC90 [2, 18]: 0.003 µM (≈ 0.00117 µg/mL)
MIC90 [4, 19]: 0.01 µM (≈ 0.00389 µg/mL)

Cc1ccn2c(C(=O)NCc3cccc(OC(C)C)c3)c(C)nc2c1 [ND-9872]
MIC90 [3]: 0.87 µM (≈ 0.294 µg/mL)
MIC90 [1, 17]: 0.23 µM (≈ 0.0776 µg/mL)
MIC90 [2, 18]: 0.28 µM (≈ 0.0945 µg/mL)
MIC90 [4, 19]: 0.89 µM (≈ 0.3 µg/mL)

Cc1ccn2c(C(=O)NCc3ncc(C(F)(F)F)cc3Cl)c(C)nc2c1 [ND-9902]
MIC90 [3]: 2.95 µM (≈ 1.13 µg/mL)
MIC90 [1, 17]: 0.74 µM (≈ 0.283 µg/mL)
MIC90 [2, 18]: 1.10 µM (≈ 0.421 µg/mL)
MIC90 [4, 19]: 2.96 µM (≈ 1.13 µg/mL)

Cc1ccc2nc(C)c(C(=O)NCc3ccc(S(C)(=O)=O)cc3)n2c1 [ND-9965]
MIC90 [3]: 2.31 µM (≈ 0.826 µg/mL)
MIC90 [1, 17]: 0.54 µM (≈ 0.193 µg/mL)
MIC90 [2, 18]: 0.57 µM (≈ 0.204 µg/mL)
MIC90 [4, 19]: 1.98 µM (≈ 0.708 µg/mL)

CO[C@H]1/C=C/O[C@@]2(C)Oc3c(C)c(O)c4c(O)c(c(/C=N/N5CCN(C)CC5)c(O)c4c3C2=O)NC(=O)/C(C)=C\C=C\[C@H](C)[C@H](O)[C@@H](C)[C@@H](O)[C@@H](C)[C@H](OC(C)=O)[C@@H]1C [RMP, Rifampicin, reference compound]
MIC90 ([1]; Mycobacterium tuberculosis): > 1 µM
MIC90 ([2]; Mycobacterium tuberculosis): 0.01 µM (≈ 0.00823 µg/mL)
